# Laboratory results: patent US8729122B2, “Pharmaceutical and nutraceutical compositions of abscisic acid” (Valent BioSciences Corporation, priority 2010, dated 2014)
# “And” between values parts separate entries of the source, which are not always exact repeats. Equal entries are not always repeated.
# Columns and labels:
# rats [1] = test: Two Generation Reproduction Toxicity Study (dietary S-ABA); format: in vivo; details: for SPLEEN WEIGHT, % DIFFERENCE: versus 0 PPM
# Experimental: Two Generation Reproduction Toxicity Study
# This study was conducted to determine the potential adverse effects of the test substance on reproduction in a 2-generation study. This included determining the effects of the test substance on male and female reproductive processes, including gonadal function, estrous cyclicity, mating behavior, conception, gestation, parturition, lactation, weaning, and on growth and development of the offspring. A minimum of 1 litter was produced in each generation.
# Three groups of male and female were offered S-ABA, continuously in the diet for at least 70 consecutive days prior to mating. Target tests substance concentrations were 10,000, 15,000, and 20,000 ppm for the F0 and F1 generations. A concurrent control group of 30 rats/sex was offered the basal diet continuously throughout the study. F0 animals were approximately 7 weeks of age at the initiation of test diet administration. The test diet was administered to the offspring selected to become the F1 generation following weaning. The F0 and F1 males continued to receive the test substance throughout mating and continuing through the day prior to euthanasia. The F0 and F1 females continued to receive the test substance throughout mating, gestation, and lactation, and through the day of euthanasia. For both generations (F1 and F2), 8 pups per litter (4 per sex, when possible) were selected to reduce the variability among the litters. Offspring (30/sex/group, if possible) from the pairing of the F0 animals were selected to constitute the F1 generation.
# All animals were observed twice daily for appearance and behavior. Clinical observations, body weights, and food consumption were recorded at appropriate intervals for males throughout the study and for females prior to mating and during gestation and lactation. All F0 and F1 females were allowed to deliver and rear their pups until weaning on lactation day 21. Clinical observations, body weights, and sexes for F1 and F2 pups were recorded at appropriate intervals. Nonselected F1 pups and all surviving F2 pups were necropsied. Selected organs were weighed from 1 pup/sex/litter from F1 and F2 pups that were necropsied. Each surviving F0 and F1 parental animal received a complete detailed gross necropsy following the completion of weaning of the F1 and F2 pups, respectively; selected organs were weighed. Spermatogenic endpoints were recorded for all F0 and F1 males, and ovarian primordial follicle counts were recorded for all F0 and F1 females in the control and high-exposure groups and all F0 and F1 females suspected of reduced fertility. Designated tissues from all F0 and F1 parental animals were examined microscopically.
# rats [2] = test: 21-day Dermal Toxicity Study, removal of adhesive bandage; format: in vivo; details: for Total No. of Removals (adhesive bandage), individual animals: 3 weeks
# Experimental: Animals were allocated to dose groups and treated as follows:
# Animals were dosed daily by dermal administration, with an exposure period of 6 hours, 7 days/week for a period of 3 weeks.
# The lumbar region of the animals was clipped to expose the skin (approximately 6×6 cm) with the test formulation being spread evenly over this area. A dressing of foil gauze and self adhesive bandage was wrapped around the torso to prevent oral ingestion. Following 6 hours of exposure the dressings were removed and the dose area wiped clean with a cloth dampened with distilled water.
# During the dosing period it was noted that some animals were able to get the adhesive bandage off during the 6 hour exposure period.
# [3] = Fetal data at scheduled necropsy; format: in vivo, rats
# Excerpt: Observations and testing results from this study can be seen in Tables 1, 3 and 6-13 below.
# Further supporting data can be seen below in Tables 10 and 11 showing that at necropsy fetus numbers and follicle size increase with the addition of S-ABA.
# [4] = second generation pups, 10,000 PPM
# [5] = second generation pups, 15,000 PPM
# [6] = second generation pups, 20,000 PPM
structure (smiles),measurement,setting,value
"CC1=CC(=O)CC(C)(C)[C@@]1(O)/C=C/C(C)=C\C(=O)O [S-ABA, (S)-(+)-abscisic acid]","POSTNATAL SURVIVAL, POSTNATAL DAY 0 (RELATIVE TO # BORN), mean","rats [1]; 20,000 ppm",98.5 % PER LITTER
same,"POSTNATAL SURVIVAL, POSTNATAL DAY 0-1, mean","rats [1]; 20,000 ppm",99.7 % PER LITTER
same,"POSTNATAL SURVIVAL, POSTNATAL DAY 1-4 (PRE-SELECTION), mean","rats [1]; 20,000 ppm",98.5 % PER LITTER
same,"POSTNATAL SURVIVAL, POSTNATAL DAY 4 (POST-SELECT)-21, mean","rats [1]; 20,000 ppm",98.0 % PER LITTER
same,"POSTNATAL SURVIVAL, POSTNATAL DAY 4 (POST-SELECTION)-7, mean","rats [1]; 20,000 ppm",98.5 % PER LITTER
same,"POSTNATAL SURVIVAL, POSTNATAL DAY 7-14, mean","rats [1]; 20,000 ppm",99.5 % PER LITTER
same,"POSTNATAL SURVIVAL, POSTNATAL DAY 14-21, mean","rats [1]; 20,000 ppm",100.0 % PER LITTER
same,"OFFSPRING WEIGHT, mean","rats [1]; 20,000 ppm, female, postnatal day 1",6.6 grams
same,"OFFSPRING WEIGHT, mean","rats [1]; 20,000 ppm, female, postnatal day 4",8.8 grams
same,"OFFSPRING WEIGHT, mean","rats [1]; 20,000 ppm, female, postnatal day 7",14.5 grams
same,"OFFSPRING WEIGHT, mean","rats [1]; 20,000 ppm, female, postnatal day 14",30.5 grams
same,"OFFSPRING WEIGHT, mean","rats [1]; 20,000 ppm, female, postnatal day 21",46.6 grams
same,"OFFSPRING WEIGHT, mean","rats [1]; 20,000 ppm, male, postnatal day 1",7.0 grams
same,"OFFSPRING WEIGHT, mean","rats [1]; 20,000 ppm, male, postnatal day 4",9.3 grams
same,"OFFSPRING WEIGHT, mean","rats [1]; 20,000 ppm, male, postnatal day 7",15.1 grams
same,"OFFSPRING WEIGHT, mean","rats [1]; 20,000 ppm, male, postnatal day 14",31.2 grams
same,"OFFSPRING WEIGHT, mean","rats [1]; 20,000 ppm, male, postnatal day 21",48.1 grams
same,"OVARIAN PRIMORDIAL FOLLICLE COUNTS, mean","rats [1]; females, 10,000 PPM",257.5
same,"OVARIAN PRIMORDIAL FOLLICLE COUNTS, mean","rats [1]; females, 15,000 PPM",214.0
same,"OVARIAN PRIMORDIAL FOLLICLE COUNTS, mean","rats [1]; females, 20,000 PPM",270.3
same,"PROSTATE WEIGHT, ORGAN WEIGHT, mean","rats [1]; male rats, 10,000 ppm in diet",1.08 GRAMS
same,"PROSTATE WEIGHT, ORGAN WEIGHT, mean","rats [1]; male rats, 15,000 ppm in diet",1.13 GRAMS
same,"PROSTATE WEIGHT, ORGAN WEIGHT, mean","rats [1]; male rats, 20,000 ppm in diet",1.09 GRAMS
same,"SPLEEN WEIGHT, mean","rats [1]; males, 10,000 PPM",0.98 GRAMS
same,"SPLEEN WEIGHT, % DIFFERENCE","rats [1]; males, 10,000 PPM",−2.0%
same,"SPLEEN WEIGHT, mean","rats [1]; males, 15,000 PPM",0.97 GRAMS
same,"SPLEEN WEIGHT, % DIFFERENCE","rats [1]; males, 15,000 PPM",−3.0%
same,"SPLEEN WEIGHT, mean","rats [1]; males, 20,000 PPM",0.92 GRAMS
same,"SPLEEN WEIGHT, % DIFFERENCE","rats [1]; males, 20,000 PPM",−8.9%
same,impact of prostate weight reduction on sperm production,"rats [1]; rats, two-generation study",no impact on sperm production
same,"SPLEEN WEIGHT, mean",rats [1]; [4],0.1989 GRAMS
same,"SPLEEN WEIGHT, % DIFFERENCE",rats [1]; [4],−14.8%
same,"SPLEEN WEIGHT, mean",rats [1]; [5],0.1918 GRAMS
same,"SPLEEN WEIGHT, % DIFFERENCE",rats [1]; [5],−17.8%
same,"SPLEEN WEIGHT, mean",rats [1]; [6],0.1979 GRAMS
same,"SPLEEN WEIGHT, % DIFFERENCE",rats [1]; [6],−15.2%
same,ability to remove the adhesive bandage,rats [2]; female rats in the treatment group,much better at removing the adhesive bandage
same,"Total No. of Removals (adhesive bandage), individual animals","rats [2]; group 2F, females, 100 mg/kg/day dermal, 100 mg/kg/day",4 and 1
same,"Total No. of Removals (adhesive bandage), individual animals","rats [2]; group 2M, males, 100 mg/kg/day dermal",1
same,"Total No. of Removals (adhesive bandage), individual animals","rats [2]; group 3F, females, 300 mg/kg/day dermal, 300 mg/kg/day",2 and 3
same,"Total No. of Removals (adhesive bandage), individual animals","rats [2]; group 4F, females, 1000 mg/kg/day dermal, 1000 mg/kg/day",3 and 7 and 6
same,"Total No. of Removals (adhesive bandage), individual animals","rats [2]; group 4M, males, 1000 mg/kg/day dermal",1
same,"FEMALE fetuses at scheduled necropsy, MEAN","[3]; group 2, 500 MG/KG/DAY",7.2
same,"MALE fetuses at scheduled necropsy, MEAN","[3]; group 2, 500 MG/KG/DAY",7.5
same,"VIABLE FETUSES at scheduled necropsy, MEAN","[3]; group 2, 500 MG/KG/DAY",14.7
same,"FEMALE fetuses at scheduled necropsy, MEAN","[3]; group 3, 750 MG/KG/DAY",6.6
same,"MALE fetuses at scheduled necropsy, MEAN","[3]; group 3, 750 MG/KG/DAY",7.5
same,"VIABLE FETUSES at scheduled necropsy, MEAN","[3]; group 3, 750 MG/KG/DAY",14.2
same,"FEMALE fetuses at scheduled necropsy, MEAN","[3]; group 4, 1,000 MG/KG/DAY",8.3
same,"MALE fetuses at scheduled necropsy, MEAN","[3]; group 4, 1,000 MG/KG/DAY",6.8
same,"VIABLE FETUSES at scheduled necropsy, MEAN","[3]; group 4, 1,000 MG/KG/DAY",15.1
